Where two headings read alike, the source gives them in different places.
Test system: HCV 1b-377-neo replicon cells
Experiment: HCV replicon assay (HCV 1b-377-neo replicon cells)
Format: cell-based, Hepatitis C virus genotype 1b
Parameters: EC50 range against HCV 1b (Range): scale not given here
Protocol: An HCV Replion assay was utilized in the present disclosure, and was prepared, conducted and validated as described in commonly owned PCT/US2006/022197 and in O'Boyle et. al. Antimicrob Agents Chemother. April 2005;49(4): 1346-53.
HCV 1b-377-neo replicon cells were used to test the currently described compound series as well as cells resistant to compound A due to a Y2065H mutation in NS5A (described in application PCT/US2006/022197). The compounds tested were determined to have more than 10-fold less inhibitory activity on cells resistant to compound A than wild-type cells indicating a related mechanism of action between the two compound series. Thus, the compounds of the present disclosure can be effective to inhibit the function of the HCV NS5A protein and are understood to be as effective in combinations as previously described in application PCT/US2006/022197 and commonly owned WO/04014852. Further, the compounds of the present disclosure can be effective against the HCV 1b genotype. It should also be understood that the compounds of the present disclosure can inhibit multiple genotypes of HCV. […] In one embodiment compounds of the present disclosure are active against the 1a, 1b, 2a, 2b, 3a, 4a, and 5a genotypes.

[1] = Hepatitis C virus, read-out: EC50 range against HCV 1b (Range)
[2] = read-out: EC50 range against HCV 1b (Range)

| Compound | EC50 [1] | also measured |
| --- | --- | --- |
| C[C@H](NC(=O)[C@@H](c1ccccc1)N(C)C)c1ncc(-c2ccc(-c3ccc(-c4cnc([C@@H]5CCCN5C(=O)[C@@H](c5ccccc5)N(C)C)[nH]4)nn3)cc2)[nH]1 [Example 152j-13, (2R)-2-(dimethylamino)-N-((1S)-1-(5-(4-(6-(2-((2S)-1-((2R)-2-(dimethylamino)-2-phenylacetyl)-2-pyrrolidinyl)-1H-imidazol-5-yl)-3-pyridazinyl)phenyl)-1H-imidazol-2-yl)ethyl)-2-phenylacetamide] | 1 to 99 nM |  |
| CN(C)[C@@H](C(=O)N1CCC[C@H]1c1ncc(-c2ccc(-c3ccc(-c4cnc([C@@H]5CCCN5C(=O)[C@@H](c5ccccc5)N(C)C)[nH]4)nn3)nn2)[nH]1)c1ccccc1 [Example 153c-1] | 1 to 99 nM |  |
| COC(=O)N[C@@H](C(=O)N1CCC[C@H]1c1ncc(-c2ccc(-c3ccc(-c4cnc([C@@H]5CCCN5C(=O)Cc5ccccc5)[nH]4)cc3)cc2)[nH]1)c1ccccc1 [Example 28, methyl((1R)-2-oxo-1-phenyl-2-((2S)-2-(5-(4′-(2-((2S)-1-(phenylacetyl)-2-pyrrolidinyl)-1H-imidazol-5-yl)-4-biphenylyl)-1H-imidazol-2-yl)-1-pyrrolidinyl)ethyl)carbamate] | 1 to 99 nM |  |
| CCN(CC)[C@@H](C(=O)N1CCC[C@H]1c1ncc(-c2cnc(-c3ccc(-c4[nH]c([C@@H]5CCCN5C(=O)[C@@H](c5ccccc5)N(CC)CC)nc4C(F)(F)F)cc3)nc2)[nH]1)c1ccccc1 [Example J47, (1R)-2-((2S)-2-(5-(4-(5-(2-((2S)-1-((2R)-2-(diethylamino)-2-phenylacetyl)-2-pyrrolidinyl)-1H-imidazol-5-yl)-2-pyrimi-dinyl)phenyl)-4-(trifluoromethyl)-1H-imida-zol-2-yl)-1-pyrrolidinyl)-N,N-dieth-yl-2-oxo-1-phenylethanamine] | 0.01 to 0.999 nM |  |
| COC(=O)N[C@@H](C)C(=O)N1CCC[C@H]1c1ncc(-c2cnc(-c3ccc(-c4[nH]c([C@@H]5CCCN5C(=O)[C@H](C)NC(=O)OC)nc4C(F)(F)F)cc3)nc2)[nH]1 [Example J50, methyl ((1S)-2-((2S)-2-(5-(4-(5-(2-((2S)-1-(N-(methoxy-carbonyl)-L-alanyl)-2-pyrrolidinyl)-1H-imidazol-5-yl)-2-pyrimi-dinyl)phenyl)-4-(trifluoromethyl)-1H-imida-zol-2-yl)-1-pyrrolidinyl)-1-methyl-2-oxoeth-yl)carbamate] | 0.01 to 0.999 nM |  |
| CCC(C)NCC(=O)N1CCC[C@H]1c1ncc(-c2ccc(-c3ccc(-c4cnc([C@@H]5CCCN5C(=O)[C@@H](NC(=O)OC)C(C)C)[nH]4)cc3)cc2)[nH]1 (stereo partly shown) [LS24] |  | EC50 [2]: 0.01 to 0.999 nM |
| CCN(CC)[C@@H](C(=O)N1CCC[C@H]1c1ncc(-c2ccc(-c3ncc(-c4c[nH]c([C@@H]5CCCN5C(=O)[C@@H](NC(=O)OC)C(C)C)n4)cn3)cc2)[nH]1)c1ccccc1 [Example D76, methyl ((1S)-1-(((2S)-2-(5-(2-(4-(2-((2S)-1-((2R)-2-(diethyl-amino)-2-phenyl-acetyl)-2-pyrroli-dinyl)-1H-imidazol-5-yl)phenyl)-5-pyrimi-dinyl)-1H-imida-zol-2-yl)-1-pyrroli-dinyl)carbon-yl)-2-methylpro-pyl)carba-mate] | 0.01 to 0.999 nM |  |
| COC(=O)N[C@H](C(=O)N1CCC[C@H]1c1ncc(-c2ccc(-c3ccc(-c4cnc([C@@H]5CCCN5C(=O)[C@@H](NC(=O)OC)C(C)C)[nH]4)cc3CN(C)C)cc2)[nH]1)C(C)C [Example M120, methyl((1S)-1-(((2S)-2-(5-(2-((dimethylamino)methyl)-4′-(2-((2S)-1-((2S)-2-((methoxycarbonyl)amino)-3-methylbutanoyl)-2-pyrrolidinyl)-1H-imidazol-5-yl)-4-biphenylyl)-1H-imidazol-2-yl)-1-pyrrolidinyl)carbonyl)-2-methylpropyl)carbamate] | 100 to 999 nM |  |
| COC(=O)N[C@@H](C(=O)N1CCC[C@H]1c1ncc(-c2ccc(-c3ccc(-c4cnc([C@@H]5CCCN5C(=O)[C@@H]5CCCO5)[nH]4)cc3C)cc2)[nH]1)c1ccccc1 [Example 128, methyl ((1R)-2-((2S)-2-(5-(2′-methyl-4′-(2-((2S)-1-((2S)-tetrahydro-2-furanylcarbonyl)-2-pyrrolidinyl)-1H-imidazol-5-yl)-4-biphenylyl)-1H-imidazol-2-yl)-1-pyrrolidinyl)-2-oxo-1-phenylethyl)carbamate] | 0.01 to 0.999 nM |  |
| COC(=O)N[C@@H](C(=O)N(C)[C@@H](C)c1ncc(-c2ccc(-c3ncc(-c4cnc([C@@H]5CCCN5C(=O)[C@H](NC(=O)OC)c5ccccc5)[nH]4)cn3)cc2)[nH]1)c1ccccc1 [Example 152j-21, methyl ((1R)-2-((2S)-2-(5-(2-(4-(2-((1S)-1-(((2R)-2-((methoxycarbonyl)a-mino)-2-phenylacetyl)(methyl)amino)ethyl)-1H-imidazol-5-yl)phenyl)-5-pyrimidinyl)-1H-imidazol-2-yl)-1-pyrrolidinyl)-2-oxo-1-phenylethyl)carbamate] | 0.01 to 0.999 nM |  |
| COC(=O)N[C@@H](C(=O)N1CCC[C@H]1c1ncc(-c2ccc(-c3ccc(-c4cnc([C@@H]5CCCN5C(=O)[C@@H](c5ccccc5)N(C)C)[nH]4)cc3C)cc2)[nH]1)c1ccccc1 [Example 126, methyl ((1R)-2-((2S)-2-(5-(4′-(2-((2S)-1-((2R)-2-(dimethylamino)-2-phenylacetyl)-2-pyrolidinyl)-1H-imidazol-5-yl)-2′-methyl-4-biphenylyl)-1H-imidazol-2-yl)-1-pyrrolidinyl)-2-oxo-1-phenylethyl)carbamate] |  | EC50 [2]: 0.01 to 0.999 nM |
| CO[C@@H](C(=O)N1CCC[C@H]1c1ncc(-c2ccc(-c3ccc(-c4cnc([C@@H]5CCCN5C(=O)[C@H](OC)c5ccccc5)[nH]4)cn3)cc2)[nH]1)c1ccccc1 [Example 135, 5-(2-((2S)-1-((2R)-2-methoxy-2-phenylacetyl)-2-pyrrolidinyl)-1H-imidazol-5-yl)-2-(4-(2-((2S)-1-((2R)-2-methoxy-2-phenylacetyl)-2-pyrrolidinyl)-1H-imidazol-5-yl)phenyl)pyridine] | 0.01 to 0.999 nM |  |
| COC(=O)N[C@@H](C(=O)N1CCC[C@H]1c1ncc(-c2ccc(-c3ccc(-c4cnc([C@@H]5CCCN5C(=O)[C@H](NC(=O)OC)c5ccccc5)[nH]4)cn3)nc2)[nH]1)c1ccccc1 [Example 145, dimethyl(2,2′-bipyridine-5,5′-diylbis(1H-imidazole-5,2-diyl(2S)-2,1-pyrrolidinediyl((1R)-2-oxo-1-phenyl-2,1-ethanediyl)))biscarbamate] | 0.01 to 0.999 nM |  |
| CN(C)[C@@H](C(=O)N1CCC[C@H]1c1nc(-c2ccc(-c3ccc(-c4cn(C)c([C@@H]5CCCN5C(=O)[C@@H](c5ccccc5)N(C)C)n4)cc3)cc2)cn1C)c1ccccc1 (single isomer, unassigned) [Example 151 isomer 2] |  | EC50 (listed as 151 isomer 2, read-out: EC50 range against HCV 1b (Range)): 100 to 999 nM |
| CN(C)[C@@H](C(=O)N1CCC[C@H]1c1nc(-c2ccc(-c3ccc(-c4cn(C)c([C@@H]5CCCN5C(=O)[C@@H](c5ccccc5)N(C)C)n4)cc3)cc2)cn1C)c1ccccc1 (single isomer, unassigned) [Example 151 isomer 1] |  | EC50 (listed as 151 isomer 1, read-out: EC50 range against HCV 1b (Range)): 1 to 99 nM |
| CN(C)[C@@H](C(=O)N1CCC[C@H]1c1ncc(-c2ccc(-c3ccc(-c4cnc([C@@H]5CCCN5C(=O)[C@@H](c5ccccc5)N(C)C)[nH]4)nc3)cc2)[nH]1)c1ccccc1 [Example 146, (1R)-2-((2S)-2-(5-(5-(4-(2-((2S)-1-((2R)-2-(dimethylamino)-2-phenylacetyl)-2-pyrrolidinyl)-1H-imidazol-5-yl)phenyl)-2-pyridinyl)-1H-imidazol-2-yl)-1-pyrrolidinyl)-N,N-dimethyl-2-oxo-1-phenylethanamine] | 0.01 to 0.999 nM |  |
| COC(=O)N[C@H](C(=O)N1CCC[C@H]1c1ncc(-c2ccc(-c3ccc(-c4cnc([C@@H]5CCCN5C(=O)[C@@H](NC(=O)OC)C(C)C)[nH]4)cc3C(=O)O)cc2)[nH]1)C(C)C [Example M114, 4,4′-bis(2-((2S)-1-(N-(methoxycarbonyl)-L-valyl)-2-pyrrolidinyl)-1H-imidazol-5-yl)-2-biphenylcarboxylic acid] |  | EC50 range against HCV 1b (Range): >A |
| COC(=O)N[C@@H](C(=O)N[C@@H](C)c1ncc(-c2cnc(-c3ccc(-c4cnc([C@@H]5CCCN5C(=O)[C@H](NC(=O)OC)c5ccccc5)[nH]4)cc3)cn2)[nH]1)c1ccccc1 [Example 152j-19, methyl ((1R)-2-((2S)-2-(5-(4-(5-(2-((1S)-1-(((2R)-2-((methoxycarbonyl)a-mino)-2-phenyl-acetyl)amino)eth-yl)-1H-imidazol-5-yl)-2-pyrazinyl)phenyl)-1H-imidazol-2-yl)-1-pyrrolidinyl)-2-oxo-1-phenylethyl)carbamate] | 0.01 to 0.999 nM |  |
| COC(=O)N[C@H](C(=O)N1CCC[C@H]1c1ncc(-c2cnc(-c3ccc(-c4[nH]c([C@@H]5CCCN5C(=O)[C@@H](NC(=O)OC)C(C)C)nc4C(F)(F)F)cc3)nc2)[nH]1)C(C)C [Example J48, methyl ((1S)-1-(((2S)-2-(5-(2-(4-(2-((2S)-1-((2S)-2-((methoxy-carbonyl)amino)-3-methyl-butanoyl)-2-pyrrolidinyl)-4-(trifluoromethyl)-1H-imidazol-5-yl)phenyl)-5-pyrimidinyl)-1H-imidazol-2-yl)-1-pyrroli-dinyl)carbon-yl)-2-methylpro-pyl)carba-mate] | 0.01 to 0.999 nM |  |

Source: patent US7659270B2, “Hepatitis C virus inhibitors” (Bristol-Myers Squibb Company, priority 2006, dated 2010)
